In US9075070B2, “HTS fluorescence polarization assay for inhibitors of Keap1-Nrf2 interaction” (RUTGERS, THE STATE UNIVERSITY OF NEW JERSEY, priority 2011, dated 2015):

Molecular target: human Keap1 Kelch domain (Homo sapiens, UniProt Q14145)
Assay: FP binding assay: titration of fluorescently labeled Nrf2 peptide probes with Keap1 Kelch domain
Details: difference in the free and the bound anisotropy of the FITC-labeled peptide

human Keap1 Kelch domain, sequence (Q14145 with tags, fused parts or gaps): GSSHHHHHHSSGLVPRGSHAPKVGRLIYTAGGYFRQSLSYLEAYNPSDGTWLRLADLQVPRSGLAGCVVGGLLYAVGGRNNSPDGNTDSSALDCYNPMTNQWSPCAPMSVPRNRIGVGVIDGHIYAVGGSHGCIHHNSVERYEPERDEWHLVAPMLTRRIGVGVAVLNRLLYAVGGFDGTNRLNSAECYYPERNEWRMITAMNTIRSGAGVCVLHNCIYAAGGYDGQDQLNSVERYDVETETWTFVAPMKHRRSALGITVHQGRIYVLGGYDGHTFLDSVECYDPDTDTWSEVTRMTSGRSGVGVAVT

- Dynamic Range (ΔmA): 64.2 mA
Structure (SMILES): CC(C)C[C@H](NC(=O)[C@H](Cc1ccccc1)NC(=O)[C@H](CCC(=O)O)NC(=O)CNC(=O)[C@@H](NC(=O)[C@H](CCC(=O)O)NC(=O)[C@H](CCC(=O)O)NC(=O)[C@H](CC(=O)O)NC(=O)[C@H](CC(C)C)NC(=O)[C@H](CCC(N)=O)NC(=O)[C@H](CC(C)C)NC(=O)[C@H](CCC(N)=O)NC(=O)[C@H](C)NC(=O)[C@H](Cc1ccccc1)NC(=S)Nc1ccc2c(c1)C(=O)OC21c2ccc(O)cc2Oc2cc(O)ccc21)[C@@H](C)O)C(=O)O [FITC-14mer Nrf2]
